For one data set, the target named is T1, αSYN pathology (Homo sapiens, UniProt P37840).
T1 construct: tissue Neurobiobank München (NBM, Munich, Germany); host or cells: post-mortem human brain slices (MSA cerebellum, PD frontal cortex, controls)
Description: in vitro autoradiography on human brain slices with αSYN pathology (MSA, PD). It counts as binding. Here is the method:
Post-mortem human brain slices (10 µm thickness) were obtained from and the subject cases were analyzed by the Neurobiobank München (NBM, Munich, Germany), where tissues were collected on the basis of written informed consent according to the guidelines of the ethics committee of the Ludwig-Maximilians-University Munich, Germany (# 345-13). The use of brain tissue samples in this study was approved by the ethics committee of the Faculty of Medicine at the University of Tuebingen (Ethics approval number: 813/2018BO2). Table 1 summarizes the information of the subjects from which samples were obtained and used in the experiment.
For autoradiography, brain slices were thawed for one hour before preincubation in BSA buffer for 25 minutes at room temperature. To determine total binding (TB), brain slices were incubated with the tracer (10 nM [^18F]PFSB, 10 nM [^18F]MFSB). […]
Quantitative data analysis was performed by drawing four regions of interest (ROIs) in relevant areas of the slice and one ROI next to it for background subtraction (imaged 1.8.0_172, National Institute of Health, Bethesda, Maryland, USA) (Schneider, C. A. et al., NIH Image to imaged: 25 years of image analysis; Nat Methods 2012, 9 (7), 671-5). […] The SB disease/SB control ratio was calculated by dividing by the SB in diseased tissues with the respective SB in control tissues.

The nature of data set [1]: in vivo dynamic PET/MR imaging, pharmacokinetic profile. The conditions noted are these: healthy wild-type mice, i.v. Here is the method: The animal experiments were performed in compliance to the European directives on the protection and use of laboratory animals (Council Directive 2010/63/UE) and the German animal welfare act with approval from the local authorities (Regierungspräsidium Tuebingen, R3/19G). Three healthy wild-type female C57BU6J mice (20.3 ± 0.9 g; 9 weeks old) purchased from Charles River Laboratories (Sulzbach, Germany) were maintained in a vivarium on a 12:12 hour light dark cycle and were kept at a temperature of 22°C with 40-60% humidity and free access to a standard diet and tap water.
The mice (n = 3) were anaesthetized with 1.5% isoflurane evaporated in 100% oxygen at a flow rate of 0.8 L/min. Body temperature of 37°C was maintained using a feedback temperature control unit. PET imaging studies were performed on Inveon dedicated microPET system (Inveon D-PET, Siemens, Knoxville, TN, USA). Five seconds after the start of PET acquisition, mice were injected intravenously with 9.9 ± 0.6 MBq of [^18F]MFSB (Am = 46.2 ± 2.5 GBq/µmol at time of injection). The one-hour dynamic acquisitions were divided into 39 time frames (12×5 s, 6×10 s, 6×30 s, 5×60 s and 10×300 s). A 13-minute transmission measurement with a cobalt-57 point source was performed for attenuation correction. Subsequently, an anatomical magnetic resonance (MR) scan with a 7 Tesla MR scanner (ClinScan, Bruker BioSpin MRI GmbH, Ettlingen, Germany) using a rat whole-body volume coil and the Paravision software (v6.0.1, Bruker, Ettlingen, Germany) using a T2-weighted Turbo-RARE MRI sequence.
The PET image was reconstructed via the OSEM3D/SP-MAP reconstruction algorithm and coregistered to the whole-body MRI scan. […] Standardized uptake values (SUVs) were calculated as a ratio of the detected activity with injected activity and weight (SUV = (TAC (kBq/cc) / inj. activity (kBq)) * weight (g)).

Turning to `[18F]c1ccc2nc(/C=C/c3ccc(N4CCOCC4)cc3)sc2c1` [[^18F]MFSB], the “SB disease/SB control, MSA1/cerebellum ctrl” value at αSYN pathology (10 nM tracer, NSB with 10 µM non-radioactive compound) is recorded as 1.20. Moreover, in data set [1] (dynamic PET/MR over 60 min), the “crossing of the BBB” value was “crossing of the BBB was successful” and the kidney uptake entry was “Significant kidney uptake”. Further, the “SUV in lungs and liver” value in data set [1] (first 2 min) is listed as “≈ 5”.

For the molecule `[18F]c1ccc2nc(/C=C/c3ccc(N4CCCCC4)cc3)sc2c1` [[^18F]PFSB], the “specific binding (SB) ratio, MSA patients compared to control of the same brain area” value at αSYN pathology (mean over MSA brain slices) came to 3.94 ± 0.30.

The values above are taken from patent EP4438597A1, “2-STYRYLBENZOTHIAZOLE DERIVATIVES AS A-SYNUCLEIN BINDING COMPOUNDS” (Eberhard Karls Universität Tübingen Medizinische Fakultät, priority 2023, dated 2024).
